Results reported in paper PMC7318034, “Safety, Pharmacokinetics, and Drug-Drug Interaction Potential of Intravenous Durlobactam, a β-Lactamase Inhibitor, in Healthy Subjects” (Antimicrobial Agents and Chemotherapy, 2020).

How the values were obtained:
[1] = Part C single-dose drug-drug interaction plasma PK in healthy subjects; conditions: for half-life / AUC(0-t) / clearance / Cmax / Vd: human, in vivo; for clearance: CL; for Vd: Vss
Description: (§1) The blank control matrix was made up of human plasma (BioreclamationIVT) diluted 1:1 with SigmaFast (reconstituted protease inhibitor cocktail tablet [product S8820; Sigma-Aldrich, St. Louis, MO] in 10 ml of water) for preparation of calibration standards and QC samples. […] A 100-μl aliquot of the supernatant was transferred to 96-well plates. Samples were diluted further with 400 μl of water, and 5 μl of sample was injected into the LC-MS/MS system for analysis. […] The LLOQ for all analytes was 5 ng/ml.
(§2) AUC was calculated using the log-linear trapezoidal rule.
(§3) Pharmacokinetic parameters were summarized at each assessment time point using the mean ± standard deviation (SD), the percent coefficient of variation (CV), median, minimum, and maximum. Single-ascending-dose study data were assessed for dose proportionality using Cmax and AUC, and accumulation ratios was determined using repeat-dose cohorts. […] Noncompartmental analysis of PK parameters was performed using Phoenix WinNonlin (v6.4) software to determine PK parameters.

[2] = Urine PK (urinary excretion, renal clearance) in healthy subjects; conditions: for CL renal: human, CLr
[3] = Part D multiple-dose coadministration of DUR, SUL and IMI-CIL, plasma PK in healthy subjects; conditions: for AUC / Cmax / Tmax: human, in vivo; for AUC: AUC0–tau
Description: as §1, §2, §3

clinical = conditions: human, 0.5 g
[4] = cited from earlier work
[5] = AUC0–24, part C cohort 14, DUR 1 g + IMI-CIL 0.5 g + SUL 1 g, day 8
[6] = part C cohort 14, IMI-CIL 0.5 g alone, day 3
[7] = part C cohort 14, DUR 1 g + IMI-CIL 0.5 g + SUL 1 g, day 8
[8] = part C cohort 14, DUR 1 g + IMI-CIL 0.5 g, day 5
[9] = part C cohort 14, Day 8, placebo subjects (no DUR), n=2
[10] = part D cohort 15, Day 1, DUR + SUL + IMI-CIL q6h, mean, n=10
[11] = part D cohort 15, Day 11, DUR + SUL + IMI-CIL q6h, mean, n=10
[12] = DUR 1 g + SUL 1 g + IMI-CIL 0.5 g q6h, day 11
[13] = DUR 1 g + SUL 1 g + IMI-CIL 0.5 g q6h, day 1
[14] = DUR 1 g + SUL 1 g + IMI-CIL 0.5 g q6h, day 1, median, n=10
[15] = DUR 1 g + SUL 1 g + IMI-CIL 0.5 g q6h, day 11, median
[16] = 1 g, part C cohort 13, SUL 1 g alone, day 1
[17] = part C cohort 13, DUR 1 g + SUL 1 g coadministered, day 5
[18] = part C cohort 14, SUL 1 g + IMI-CIL 0.5 g, day 8

CC1(C)C[C@@H]1C(=O)N/C(=C\CCCCSC[C@H](N)C(=O)O)C(=O)O [CIL, cilastatin] gave a half-life [1] of 1.2 ± 0.2 h, an AUC(0-t) [1, 5] of 46900 ± 6600 ng·h/mL and an AUC(0-t) ([1]; AUC0–24, part C cohort 14, DUR 1 g + IMI-CIL 0.5 g, day 5) of 47100 ± 7200 ng·h/mL. For the same compound, the AUC(0-t) ([1]; AUC0–24, part C cohort 14, IMI-CIL 0.5 g alone, day 3) was 49600 ± 9800 ng·h/mL, the clearance [1, 6] was 173 mL/min and the Cmax [1, 7] was 40700 ± 4900 ng/mL. The Cmax [1, 8] was 44000 ± 6100 ng/mL, the Cmax [1, 6] was 46000 ± 8300 ng/mL and the Vd [1, 7] was 10.4 ± 0.9 L. It also gave a Vd [1, 8] of 9.9 ± 1.2 L, a Vd [1, 6] of 9.6 ± 1.4 L and a CL [1, 7] of 10.9 ± 1.6 L/h. The t1/2 [1, 7] was 1.2 ± 0.2 h, the CL [1, 8] was 10.8 ± 1.8 L/h and the t1/2 [1, 8] was 1.2 ± 0.2 h. For the same compound, the CL renal ([2]; in vivo, part C cohort 14, Day 8, placebo subjects (no DUR), n=2) was 206 mL/min, the CL renal ([2]; in vivo, part D cohort 15, Day 11, DUR + SUL + IMI-CIL q6h, mean) was 183 mL/min and the Ae [2, 9] was 601.795 (46.820) mg. The Fe [2, 9] was 120.359 (9.364) %, the Ae [2, 10] was 3535.03 mg and the Fe [2, 10] was 88.376%. For the same compound, the Ae [2, 11] was 424.168 mg, the Fe [2, 11] was 84.834% and the Accum. index [3, 12] was 1.1 ± 0.04. The accumulation index ([3]; day 11 vs day 1) was “approximately 1”, the AUC [3, 13] was 45600 ± 7000 ng·h/mL and the AUC [3, 12] was 39400 ± 7200 ng·h/mL. It also gave a Cmax [3, 13] of 38600 ± 6000 ng/mL, a Cmax [3, 12] of 38000 ± 5600 ng/mL and a Tmax [3, 14] of 0.5 h. For the same compound, the Tmax [3, 15] was 0.5 h and the CL renal (clinical; in vivo) was 133 mL/min.
For CC1(C)[C@H](C(=O)O)N2C(=O)C[C@H]2S1(=O)=O [SUL, Sulbactam], the half-life ([1]; 1 g) was 1.3 ± 0.1 h, the AUC(0-t) ([1]; 1 g, AUC0–24, part C cohort 13, SUL 1 g alone, day 1) was 68500 ± 4700 ng·h/mL and the clearance [1, 16] was 243 mL/min. The Cmax [1, 16] was 20700 ± 700 ng/mL, the Vd [1, 16] was 18 ± 1.6 L and the AUC(0-t) ([1]; AUC0–24, part C cohort 13, DUR 1 g + SUL 1 g coadministered, day 5) was 73000 ± 6200 ng·h/mL. It also gave an AUC(0-t) [1, 5] of 80600 ± 21200 ng·h/mL, an AUC(0-t) ([1]; AUC0–24, part C cohort 14, SUL 1 g + IMI-CIL 0.5 g, day 8) of 81700 ± 5200 ng·h/mL and a clearance [1, 17] of 230 mL/min. The clearance [1, 7] was 217 mL/min, the clearance [1, 18] was 205 mL/min and the Cmax [1, 17] was 22000 ± 2700 ng/mL. The Cmax [1, 18] was 24000 ± 2000 ng/mL, the Vd [1, 17] was 18.1 ± 1.7 L and the Vd [1, 7] was 15.2 ± 2.7 L. The Vd [1, 18] was 15.4 ± 1.5 L, the t1/2 [1, 17] was 1.3 ± 0.1 h and the t1/2 [1, 18] was 1.3 ± 0.1 h. It also gave an AUC [3, 13] of 76700 ± 5800 ng·h/mL, an AUC [3, 12] of 67900 ± 7600 ng·h/mL and a Cmax [3, 13] of 23900 ± 1300 ng/mL. For the same compound, the Cmax [3, 12] was 22400 ± 6100 ng/mL, the Tmax [3, 14] was 2.7 h and the Tmax [3, 15] was 2.6 h.
Compound C[C@@H](O)[C@H]1C(=O)N2C(C(=O)O)=C(SCCN=CN)C[C@H]12 [IMI, imipenem, reference compound] has an AUC(0-t) ([1]; AUC0–24) of 43700 ± 9200 ng·h/mL, a clearance [1] of 197 mL/min and a Cmax [1] of 34400 ± 5300 ng/mL. It also gave a half-life ([1]; t1/2) of 1.2 ± 0.1 h, a CL renal ([2]; urine, intravenous, part C cohort 14, Day 8, placebo subjects (no DUR), n=2) of 70.4 mL/min and a CL renal ([2]; urine, intravenous, part D cohort 15, Day 11, DUR + SUL + IMI-CIL q6h, mean) of 136 mL/min. The Ae [2, 9] was 183.832 (56.842) mg, the Fe [2, 9] was 36.766 (11.368) % and the Ae [2, 10] was 1407.051 mg. The Fe [2, 10] was 35.1762%, the Ae [2, 11] was 271.71 mg and the Fe [2, 11] was 54.343%. It also gave a CL renal (clinical; urine, intravenous) of 102 mL/min.
In the case of colistin, the “nephrotoxicity, patients affected” value ([4]; patients treated with colistin) is given as at least 40% and the mortality rate ([4]; patients with hospital-acquired or ventilator-associated pneumonia treated with colistin-based antibiotic regimens) is given as “approximately 40%”.
